# Data: patent US20240360177A1, “PEPTIDES WITH ANTIMICROBIAL ACTIVITIES” (priority 2021, published 2024)
# Non-standard residues stand in square brackets, D forms with d. Residues, ends and D or L forms follow the SMILES beside them. Ava = NCCCCC(=O)O
# Key:
# C. albicans = details: 24 h
# C. glabrata = details: 24 h
# C. parapsilosis = details: 24 h
# C. krusei = details: 24 h
# C. auris = details: 24 h
# C. tropicalis = details: 24 h
# C. dubliniensis = details: 24 h
# C. neoformans = details: 72 h
# C. gattii = details: 72 h
# Scedosporium spp. = details: 72 h
MIC C. albicans (C. albicans) [µg/mL],MIC C. glabrata (C. glabrata) [µg/mL],MIC C. parapsilosis (C. parapsilosis) [µg/mL],MIC C. krusei (C. krusei) [µg/mL],MIC C. auris (C. auris) [µg/mL],MIC C. tropicalis (C. tropicalis) [µg/mL],MIC C. dubliniensis (C. dubliniensis) [µg/mL],MIC C. neoformans (C. neoformans) [µg/mL],MIC C. gattii (C. gattii) [µg/mL],MIC Range Scedosporium spp. (Scedosporium spp.) [µg/mL],MIC Range Lomentospora prolificans (Lomentospora prolificans) [µg/mL],SMILES
0.25,2,0.5,1,>32,0.5,0.25,8,2,8 to 16,32,"N=C(N)NCCC[C@@H](N)C(=O)N[C@@H](CCCNC(=N)N)C(=O)N[C@H](CCCNC(=N)N)C(=O)N1CCC[C@H]1C(=O)N[C@H](CCCNC(=N)N)C(=O)N[C@@H](CCCNC(=N)N)C(=O)N[C@H](CCCNC(=N)N)C(=O)N1CCC[C@H]1C(=O)N[C@H](CCCNC(=N)N)C(=O)N[C@@H](CCCNC(=N)N)C(=O)N1CCC[C@H]1C(=O)N[C@H](CCCNC(=N)N)C(=O)N[C@@H](CCCNC(=N)N)C(N)=O [SEQ ID NO: 69, rRr-P-rRr-P-rR-P-rR-NH2] (H-[dR]R[dR]P[dR]R[dR]P[dR]RP[dR]R-NH2)"
0.5,1,0.25,2,>32,0.5,1,8,4,4 to 8,8,"N=C(N)NCCC[C@@H](N)C(=O)N[C@@H](CCCNC(=N)N)C(=O)N1CCC[C@H]1C(=O)N[C@H](CCCNC(=N)N)C(=O)N[C@@H](CCCNC(=N)N)C(=O)N[C@H](CCCNC(=N)N)C(=O)N1CCC[C@H]1C(=O)N[C@H](CCCNC(=N)N)C(=O)N[C@@H](CCCNC(=N)N)C(=O)N[C@H](CCCNC(=N)N)C(=O)N1CCC[C@H]1C(=O)N[C@H](CCCNC(=N)N)C(=O)N[C@@H](CCCNC(=N)N)C(N)=O [SEQ ID NO: 71, rR-P-rRr-P-rRr-P-rR-NH2] (H-[dR]RP[dR]R[dR]P[dR]R[dR]P[dR]R-NH2)"
2,1,0.25,2,>32,0.5,2,16,4,16,32,"N=C(N)NCCC[C@@H](N)C(=O)N[C@@H](CCCNC(=N)N)C(=O)N1CCC[C@H]1C(=O)N[C@H](CCCNC(=N)N)C(=O)N[C@@H](CCCNC(=N)N)C(=O)N[C@H](CCCNC(=N)N)C(=O)N1CCC[C@H]1C(=O)N[C@H](CCCNC(=N)N)C(=O)N[C@@H](CCCNC(=N)N)C(=O)N1CCC[C@H]1C(=O)N[C@H](CCCNC(=N)N)C(=O)N[C@@H](CCCNC(=N)N)C(=O)N[C@H](CCCNC(=N)N)C(N)=O [SEQ ID NO: 72, rR-P-rRr-P-rR-P-rRr-NH2] (H-[dR]RP[dR]R[dR]P[dR]RP[dR]R[dR]-NH2)"

# Further lines, the compound ahead of its results:
SMILES,MIC C. albicans (C. albicans) [µg/mL],MIC C. glabrata (C. glabrata) [µg/mL],MIC C. parapsilosis (C. parapsilosis) [µg/mL],MIC C. krusei (C. krusei) [µg/mL],MIC C. auris (C. auris) [µg/mL],MIC C. tropicalis (C. tropicalis) [µg/mL],MIC C. dubliniensis (C. dubliniensis) [µg/mL],MIC C. neoformans (C. neoformans) [µg/mL],MIC C. gattii (C. gattii) [µg/mL],MIC Range Scedosporium spp. (Scedosporium spp.) [µg/mL],MIC Range Lomentospora prolificans (Lomentospora prolificans) [µg/mL]
"N=C(N)NCCC[C@@H](N)C(=O)N[C@@H](CCCNC(=N)N)C(=O)N[C@H](CCCNC(=N)N)C(=O)NCCCCC(=O)N[C@H](CCCNC(=N)N)C(=O)N[C@@H](CCCNC(=N)N)C(=O)NCCCCC(=O)N[C@H](CCCNC(=N)N)C(=O)N[C@@H](CCCNC(=N)N)C(=O)N[C@H](CCCNC(=N)N)C(=O)NCCCCC(=O)N[C@H](CCCNC(=N)N)C(=O)N[C@@H](CCCNC(=N)N)C(N)=O [SEQ ID NO: 24, rRr-(Ava)-rR-(Ava)-rRr-(Ava)-rR-NH2] (H-[dR]R[dR][Ava][dR]R[Ava][dR]R[dR][Ava][dR]R-NH2)",2,8,0.25,8,>32,1,1,16,4,8 to 32,>32
"N=C(N)NCCC[C@@H](N)C(=O)N[C@@H](CCCNC(=N)N)C(=O)NCCCCC(=O)N[C@H](CCCNC(=N)N)C(=O)N[C@@H](CCCNC(=N)N)C(=O)N[C@H](CCCNC(=N)N)C(=O)NCCCCC(=O)N[C@H](CCCNC(=N)N)C(=O)N[C@@H](CCCNC(=N)N)C(=O)NCCCCC(=O)N[C@H](CCCNC(=N)N)C(=O)N[C@@H](CCCNC(=N)N)C(=O)N[C@H](CCCNC(=N)N)C(N)=O [SEQ ID NO: 25, rR-(Ava)-rRr-(Ava)-rR-(Ava)-rRr-NH2] (H-[dR]R[Ava][dR]R[dR][Ava][dR]R[Ava][dR]R[dR]-NH2)",4,8,0.5,16,>32,2,2,32,4,16 to 32,>32
"N=C(N)NCCC[C@@H](N)C(=O)N[C@@H](CCCNC(=N)N)C(=O)NCCCCC(=O)N[C@H](CCCNC(=N)N)C(=O)N[C@@H](CCCNC(=N)N)C(=O)NCCCCC(=O)N[C@H](CCCNC(=N)N)C(=O)N[C@@H](CCCNC(=N)N)C(=O)N[C@H](CCCNC(=N)N)C(=O)NCCCCC(=O)N[C@H](CCCNC(=N)N)C(=O)N[C@@H](CCCNC(=N)N)C(=O)N[C@H](CCCNC(=N)N)C(N)=O [SEQ ID NO: 26, rR-(Ava)-rR-(Ava)-rRr-(Ava)-rRr-NH2] (H-[dR]R[Ava][dR]R[Ava][dR]R[dR][Ava][dR]R[dR]-NH2)",8,8,0.5,8,>32,2,4,16,4,16 to 32,32
"N=C(N)NCCC[C@@H](N)C(=O)N[C@@H](CCCNC(=N)N)C(=O)N[C@H](CCCNC(=N)N)C(=O)NCCCCC(=O)N[C@H](CCCNC(=N)N)C(=O)N[C@@H](CCCNC(=N)N)C(=O)N[C@H](CCCNC(=N)N)C(=O)NCCCCC(=O)N[C@H](CCCNC(=N)N)C(=O)N[C@@H](CCCNC(=N)N)C(=O)NCCCCC(=O)N[C@H](CCCNC(=N)N)C(=O)N[C@@H](CCCNC(=N)N)C(N)=O [SEQ ID NO: 27, rRr-(Ava)-rRr-(Ava)-rR-(Ava)-rR-NH2] (H-[dR]R[dR][Ava][dR]R[dR][Ava][dR]R[Ava][dR]R-NH2)",2,8,0.25,8,>32,1,1,8,2,8 to 16,32
"N=C(N)NCCC[C@@H](N)C(=O)N[C@@H](CCCNC(=N)N)C(=O)N[C@H](CCCNC(=N)N)C(=O)N1CCC[C@H]1C(=O)N[C@H](CCCNC(=N)N)C(=O)N[C@@H](CCCNC(=N)N)C(=O)N1CCC[C@H]1C(=O)N[C@H](CCCNC(=N)N)C(=O)N[C@@H](CCCNC(=N)N)C(=O)N[C@H](CCCNC(=N)N)C(=O)N1CCC[C@H]1C(=O)N[C@H](CCCNC(=N)N)C(=O)N[C@@H](CCCNC(=N)N)C(N)=O [SEQ ID NO: 68, rRr-P-rR-P-rRr-P-rR-NH2] (H-[dR]R[dR]P[dR]RP[dR]R[dR]P[dR]R-NH2)",0.25,2,0.5,2,>32,1,0.5,8,2,8,>32
"N=C(N)NCCC[C@@H](N)C(=O)N[C@@H](CCCNC(=N)N)C(=O)N1CCC[C@H]1C(=O)N[C@H](CCCNC(=N)N)C(=O)N[C@@H](CCCNC(=N)N)C(=O)N1CCC[C@H]1C(=O)N[C@H](CCCNC(=N)N)C(=O)N[C@@H](CCCNC(=N)N)C(=O)N[C@H](CCCNC(=N)N)C(=O)N1CCC[C@H]1C(=O)N[C@H](CCCNC(=N)N)C(=O)N[C@@H](CCCNC(=N)N)C(=O)N[C@H](CCCNC(=N)N)C(N)=O [SEQ ID NO: 73, rR-P-rR-P-rRr-P-rRr-NH2] (H-[dR]RP[dR]RP[dR]R[dR]P[dR]R[dR]-NH2)",1,1,0.5,2,>32,1,2,8,2,8 to 16,32
